Assay results published in US20140314904A1, “PRE-SLAUGHTER DIET INCLUDING METHIONINE” (ADISSEO FRANCE S.A.S., priority 2011, published 2014).

Assays:
Format in all cases: in vivo, pig
slaughter pigs = test: Instrumental meat colour (CIE L*a*b*), Example 1; details: LS mean ± SEM
Text: Twenty-one slaughter pigs ([Yorkshire×Swedish Landrace]×Hampshire) were raised on a commercial diet. Pigs were randomly assigned to one of three groups (n=7). The groups represented three feeding strategies, namely a Control group which received a standardized diet comprising 0.27% total methionine, and both a DLM and HMTBA group, receiving the same diet as the Control group throughout the feeding period, apart from the fact that they were fed a higher level of methionine (1.1% total methionine) during a seven day finishing period immediately prior to slaughter. The supplements were given in two forms, either as D L-methionine (DLM) or DL-2-hydroxy-4-methylthiobutanoic acid (HMTBA).
Pork chops were cut perpendicular to the long axis of each LD muscle. Six 3 cm thick pork chops was sliced from each LD. Three were vacuum packed and three were packed in a high-oxygen modified atmosphere. The chops were placed in plastic trays (M71-43A white/PS; 195×144×43 mm in dimension; Frch Plast, Denmark) and placed in vacuum bags (EM-628862; O2 transmission rate=40-50 cm^3/m^2/24 h/bar, CO2 transmission rate=150 cm^3/m^2/24 h/bar, water-vapour transmission rate=2.6 g/m^2/24 h; LogiCon Nordic A/S, Denmark). The ambient air was removed from all vacuum bags using a vacuum machine (type, manufacturer, country). The bags intended for […] were first filled with a gas mixture (80% oxygen/20% carbon dioxide) before being sealed completely, whereas the bags intended for MAP were only partially sealed. […] (until 9 days post mortem). The gas composition was checked (CheckMate 9900, PBI Dansensor, Denmark) before packaging and again prior to opening, at the end of the simulated display period in order to check for leakage. The oxygen-enriched environment was well maintained (83.4%) throughout the display period for all MA packages.
Instrumental meat colour was measured with a Minolta Chroma Meter (CR-300; D65 and 2° observer angle, 8 mm diameter measuring area; Minolta, Japan). Before packaging, as described previously, colour recordings of the pork chops was carried out. At the end of the display period, the pork chops were allowed to bloom for at least 30 min at 4±2° C. once they had been removed from the vacuum bags. Colour measurements followed the CIE colour convention, where the three fundamental outputs are L*, a* and b*. L* is lightness on a scale of 0 (all light absorbed; black) to 100 (all light reflected; white); a* spans from +60 (red) to −60 (green) and b* spans from +60 (yellow) to −60 (blue). The saturation index, also known as chroma, was calculated as the square root of a*^2+b*^2 (MacDougall, 1977). Three recordings were made on each pork chop, and the mean value was used for statistical analysis.

pigs [1] = test: Post mortem pH and temperature in M. longissimus dorsi, Example 2
Method: (§1) The pigs were slaughtered at a commercial slaughter house in Sweden after a resting time of 5 h. At 45 minutes post mortem, pH (Knick portamess 751) and temperature (digital thermometer, Weber) were measured in the M. longissiumus dorsi at the level of the 10th rib. At 48 h post mortem, the entire loins were dissected from the carcasses and transported to the University of Copenhagen for further measurements. Ultimate pH was measured, as well as colour by Minolta L*a*b*. Dry matter content was determined by drying muscle samples at 105° C. for 24 h. Slices of 3 cm thickness were cut, measured and vacuum packed before being stored for a further 7 days at 2° C. At the end of the storage period samples were heated to an internal temperature of 75° C. After being cooled down, samples were stored cold at 2° C. until they were cut into slabs of 1 cm×1 cm×2.5 cm size for shear force measurement. For each animal, 8 specimens were measured and the mean maximum load was used for further analysis.

pigs [2] = test: Colour by Minolta L*a*b*, Example 2; details: Laboratory, 2 days post mortem
Method: as §1

[3] = Initial (2 days post mortem), square root of a*^2+b*^2
[4] = MAP 80% O2/20% CO2 (9 days post mortem)
[5] = Slaughter house, 45 min post mortem

| SMILES | Light reflection (L*) (slaughter pigs; Initial (2 days post mortem)) | Redness (a*) (slaughter pigs; Initial (2 days post mortem)) | Yellowness (b*) (slaughter pigs; Initial (2 days post mortem)) | Saturation index (slaughter pigs; [3]) | Redness (a*) (slaughter pigs; [4]) | Saturation index (slaughter pigs; [4]) | Yellowness (b*) (slaughter pigs; [4]) | pH (pigs [1]; Laboratory, 2 days post mortem) | Temperature (pigs [1]; [5]) [°C] | pH (pigs [1]; [5]) | Colour Minolta L* (pigs [2]) [units] | Colour Minolta a* (pigs [2]) [units] | Colour Minolta b* (pigs [2]) [units] |
| --- | --- | --- | --- | --- | --- | --- | --- | --- | --- | --- | --- | --- | --- |
| CSCCC(O)C(=O)O (racemic) [HMTBA, 2-hydroxy-4-(methylthio) butanoic acid] | 56.89 ± 1.25 ^A, B | 7.58 ± 0.58 ^B, D | 3.71 ± 0.46 ^C | 8.46 ± 0.67 ^C, D, E | 7.43 ± 0.59 ^B, D | 9.81 ± 0.69 ^B, C, D, E | 6.35 ± 0.49 ^B | 5.40 | 39 | 6.20 | 56.89 | 7.58 | 3.71 |
| CSCCC(N)C(=O)O (racemic) [DLM, DL-methionine] | 55.75 ± 1.25 ^B | 6.69 ± 0.58 ^C, D | 2.92 ± 0.46 ^C | 7.33 ± 0.67 ^E | 7.83 ± 0.59 ^A, B, C, D | 10.55 ± 0.69 ^A, B, C, D | 7.10 ± 0.49 ^A, B | 5.50 | 39 | 6.10 | 55.75 | 6.69 | 2.92 |
